What was measured:
[1] = tested on: Cyphoma digestive gland cytosolic GST; experiment: Inhibition of CDNB-conjugating GST activity in digestive gland cytosol; assay type: biochemical, Cyphoma gibbosum; conditions: prostaglandins screened at 600 µM, 5% (v/v) DMSO, Figure 3
rat alpha-class GST A4-4 = tested on: rat alpha-class GST A4-4; parameters: method as in PMID 12230403; conditions: conversion to glutathione conjugate; read-out: Km for PGA2; cited from earlier work
human mu-class GST M1a-a = tested on: human mu-class GST M1a-a; parameters: method as in PMID 9084911; conditions: conversion to glutathione conjugate; read-out: Km for PGA2; cited from earlier work
human mu-class GST M2-2 = tested on: human mu-class GST M2-2; parameters: method as in PMID 12230403; conditions: conversion to glutathione conjugate; read-out: Km for PGA2; cited from earlier work

Compound: CCCCC[C@H](O)/C=C/[C@H]1[C@H](O)CC(=O)[C@@H]1C/C=C\CCCC(=O)OC [15(S)-PGE2-methyl ester]
- inhibition of GST activity in comparison to solvent controls [1]: little to no inhibitory activity

Compound: CCCCC[C@@](C)(O)/C=C/[C@H]1C=CC(=O)[C@@H]1C/C=C\CCCC(=O)O [15(R)-15-methyl PGA2]
- inhibition of GST activity in comparison to solvent controls [1]: most potent inhibitors

Compound: CCCCC[C@H](O)/C=C/[C@@H]1[C@@H](C/C=C\CCCC(=O)OC)[C@@H](O)C[C@H]1O [15(S)-PGF2α-methyl ester]
- inhibition of GST activity in comparison to solvent controls [1]: little to no inhibitory activity

Compound: CCCCC[C@H](O)/C=C/[C@H]1C=CC(=O)[C@@H]1C/C=C\CCCC(=O)O [15(S)-PGA2, prostaglandin A2]
- inhibition of GST activity in comparison to solvent controls ([1]; 600 µM): most potent inhibitors
- inhibition of GST activity in comparison to solvent controls ([1]; listed as PGA2, 600 µM): greatest inhibition
- Km (rat alpha-class GST A4-4): 12 µM
- Km (human mu-class GST M1a-a): 26 µM
- Km (human mu-class GST M2-2): 7.6 µM
